Laboratory results from EP0393529A1, “5,11-dihydro-6H-dipyrido [3,2-b:2',3'-e][1,4]diazepin-6-ones and their use in the prevention or treatment of AIDS” (Boehringer Ingelheim Pharmaceuticals Inc., priority 1989, dated 1990).
pIC50: −log10 of the molar value. Where two headings read alike, the source gives them in different places.

Assays:
[1] = target: T1, HIV-1 reverse transcriptase (Human immunodeficiency virus type 1 group M subtype B, UniProt P03367); experiment: Reverse Transcriptase (RT) Assay (RNA-dependent DNA polymerase activity, cell-free, 3H-dGTP incorporation); type: biochemical; conditions: read-out: RT Inhibition % @ 10µg/ml
T1 construct: Reverse transcriptase enzyme from the LAV strain; made in house; host or cells: E. coli strain JM109, clone pBRTprt1+ in vector pIBI21 (lac promoter)
Experimental: After removal of the insoluble debris by centrifugation, the protein is precipitated by the addition of 3 volumes of saturated aqueous ammonium sulfate.
The 2X concentrated stock reaction mixture is aliquoted and stored at -20°C. […] This enzyme assay has been adapted to a 96 well microtiter plate system, and has been previously described (6). […] Twenty µl of 0.12-0.5M EDTA are added to the first three wells of the microtiter plate.
This group serves as background polymerization which is subtracted from all other groups. Twenty-five µl of the 2X reaction mixture are added to all wells and the assay is allowed to incubate at room temperature for 60 minutes. […] The microtiter plate is incubated for 15 minutes at 4°C and the precipitate is fixed onto #30 glass fiber paper (Schleicher & Schuell) using a Skatron semi-automatic harvester. […] Each vial receives 2 mls of scintillation cocktail and is counted in a Beckman beta counter.

[2] = test system: HTLV-IIIB strain of HIV-1; experiment: Human T-Cell Culture Assay (syncytia formation in C8166 cells); type: cell-based; conditions: Human immunodeficiency virus 1, IIIB, 96 h, syncytia read four days after virus challenge, read-out: T-Cell Culture Assay(IC₅₀)
Experimental: In order to confirm that compounds which are active in the RT Assay also have the ability to inhibit HIV replication in a living system, compounds according to the invention were also tested in the human T-Cell Culture Assay described below.
Assay Theory: Formation of syncytia is a feature of in vitro cultures of CD4+ T-cells infected with HIV-1. In this assay, T-cells are treated with a putative replication inhibiting compound and then infected with HIV-1. After incubation the culture is checked for the formation of syncytia. The absence or reduction is the number of syncytia is used as a measure of the test compound's ability to inhibit HIV replication.
Assay Method: The target cells, designated C8166, are a subclone of human lymphoma cells of T-cell origin and are established at an initial density of 5x10⁴ per 100 ul in RPMI 1640 (+ 10% fetal bovine serum) culture medium in 96 well flat bottom plates. A selected amount of test compound, dissolved in DMSO is included. After 24 hours, 50-100 TCID50's (the dose that results in induced effect in 50% of test cultures) of the HTLV-IIIB strain of HIV-1 (2) are innoculated into each culture. Control cultures receive compound or virus only. […] The percent inhibition by the test compound is determined by comparison with control values. […]

| inhibition at 10 µg/mL ([1]; 10µg/ml compound) [%] | pIC50 [2] | inhibition at 10 µg/mL [1] [%] | SMILES |
| --- | --- | --- | --- |
| 94 | – | – | CCCN1c2ncccc2NC(=O)c2cccnc21 [Example 2, 5,11-Dihydro-11-propyl-6H-dipyrido[3,2-b:2′,3′-e][1,4]diazepin-6-one] |
| 94 | – | – | CCCN1c2ncccc2C(=O)N(C)c2cccnc21 [Example 3, 5,11-Dihydro-5-methyl-11-propyl-6H-dipyrido[3,2-b:2′,3′-e][1,4]diazepin-6-one] |
| 98 | 3.72 | – | CCN1C(=O)c2cccnc2N(CC)c2ncccc21 [Example 4, 5,11-Diethyl-5,11-dihydro-6H-dipyrido[3,2-b:2′,3′-e][1,4]diazepin-6-one] |
| – | – | 100 | CCN1c2ncccc2C(=O)N(C)c2cccnc21 [Example 8, 5,11-Dihydro-11-ethyl-5-methyl-6H-dipyrido[3,2-b:2′,3′-e][1,4]diazepin-6-one] |
